Laboratory results as given in patent publication US6194173A, “Binding proteins for phosphoinositides, GRP1 or general receptor 1 for phophoinositide” (priority 1999, dated 2001).
Like-named read-outs stand apart in the source and are kept apart here. One block for each molecule: values may come before it.

Columns and labels:
[1] = test system: receptor-regulated cell adhesion; conditions: cited from earlier work
[2] = molecular target: T1, PH domain of GRP (Mus musculus, UniProt O08967); test: Binding of [3H]dioctanoyl PtdIns(3,4,5)P3 to GST-PH of GRP; design: GST fused to the PH region of GRP (amino acids 239-399); made in house; host or cells: bacteria
T1 sequence (O08967 239-399): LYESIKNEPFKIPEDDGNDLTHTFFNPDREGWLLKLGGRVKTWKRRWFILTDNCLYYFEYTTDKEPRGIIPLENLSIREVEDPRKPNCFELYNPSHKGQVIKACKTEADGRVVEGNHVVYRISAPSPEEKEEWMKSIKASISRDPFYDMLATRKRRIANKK
Procedure: Binding assays were performed as described in (Rameh, L. E. et al., J. Biol. Chem., In Press). Briefly, GST fused to the PH region of GRP (amino acids 239-399) was bound to glutathione immobilized on agarose beads (Sigma). Synthetic [^3 H]-labeled diotanoyl PtdIns(3,4,5)P3 was added, and after one hour the beads were separated from the supernatant by centrifugation. The amount of [^3 H]-PtdIns(3,4,5)P3 bound to the PH domain was calculated by subtracting the amount of free [^3 H] present in supernatants from GST-GRP from the amount of free [^3 H] in supernatants from control GST. The data was fitted to the equation [bound]=Bmax×[free]/(KD + [free]) by least squares curve fit. For the competition assays the beads containing the GST-fusion proteins were incubated with 2.5 μM[^3 H]-labeled dioctanoyl PtdIns(3,4,5)P3 bound was calculated based on the amount of [^3 H] bound to the beads in the absence of competitor. […]
The data depicted in FIG. 8 indicate that receptor signaling through PI3-kinases, which generates PtdIns(3,4,5)P3, may specifically regulate ARF proteins through GRP. In order to further test this, the relative binding affinities of PtdIns(3,4,5)P3 versus PtdIns (4,5)P2, which is constitutively present in cell membranes, for the PH domain of GRP were determined. […] These experiments show high affinity binding of this polyphosphoinositide,with a calculated Kd=0.5 μM.

[3] = test system: PH domain of PLCγ1; conditions: cited from earlier work
[4] = molecular target: T2, GSTPH(GRP) (Mus musculus, UniProt O08967); test: Competition of [32P]PI(3,4,5)P3 binding to GST-PH by inositol phosphate head groups; design: species or system murine
T2 construct: residues 239 to 399 (PH domain); made in house; host or cells: bacteria
T2 sequence (O08967 239-399): T1 sequence (O08967 239-399)
Excerpt: To generate the GST fusion proteins, PCR reactions using the primers: […] (SEQ ID NO:9) and […] (SEQ ID NO:10) for the GST-N construct, […] (SEQ ID NO:11) and […] (SEQ ID NO:12) for the GST-Sec7 construct, […] (SEQ ID NO:13) and […] (SEQ ID NO:14) for the GSTPH construct, and […] (SEQ ID NO:15) and […] (SEQ ID NO:16) for the GSTGRP constructs. The sequences of the PCR products were verified, and cloned into pGEX-5X-3 in the EcoRI and Xba 1 sites. The bacteria were lysed and the fusion proteins were bound to gluthathione agarose according to standard procedures. Elution was effected by incubation of the beads with one volume 20 mM Hepes, 100 mM NaCl, 1 mM dithiotreitol (H buffer) supplemented with 10 mM gluthatione and 1% sodium cholate, and the eluate was dialyzed extensively against H buffer. For binding assays, protein was bound to nitrocellulose using a BIO-RAD BIO-DOT™ apparatus, using 150 pmol per well for binding assays and 7.5 pmol for competition assays. The nitrocellulose was washed in assay buffer, and 3 mm circles of the filters containing the protein were cut out and incubated in […] assay buffer with the relevant lipids and competitors for 2 h under constant agitation. The filters were washed four times with 1 mL assay buffer and counted in a scintillation counter.
The specificity of the GRP PH domain for binding [^32 P]PI(3,4,5,)P3 was also examined with respect to competition by the inositol phosphate head groups of the phosphoinositides. […] More specifically, 25,000 cpm of [^32 P]PI(3,4,5)P3 was incubated with varying concentrations of inositol 1 ,3,4,5P4 and bound radioactivity determined. The amount of radioactivity bound was calculated as percent of that bound in the absence of competitor. The values are means of quadruplicate measurements, and the error bars are standard deviations. The lack of inhibition by the latter two phosphoinositides is particularly striking since they carry the same charge as the inhibitor […] The concentration of inositol 1,3,4,5-P4 that inhibited binding of [^32 p]PI(3,4,5,)P3 half maximally was about 3-6 μM (FIG. 5A). Taken together, the data in FIGS. 4 and 5 indicate extraordinary specificity of the GRP PH domain for PI(3,4,5)P3. […] The binding to GST fusion proteins containing amino acids 462-569 of murine Sos or amino acid 13-115 of murine IRS-1 was assayed using 150 pmoles of protein bound to the filters. Competition of binding to 7.5 pmoles of GST-PH was measured in the presence of 100 μM of the competitors. The values were calculated as in (A), and are means of quadruplicate measurements and the error bars represent standard deviations.

[5] = molecular target: T3, GRP (Mus musculus, UniProt O08967); test: Inhibition by inositol phosphates of PtdIns(3,4,5)P3-stimulated GRP-mediated ARF1 exchange; type: biochemical; conditions: 100 μM inositol phosphate, 0.05% cholate and 0.05% CHAPS
T3 construct: GST (N, cleaved yes); made in house; host or cells: GRP from pGEX-4T; ARF1 from baculovirus-infected Sf-9 cells
T3 sequence (O08967 1-399): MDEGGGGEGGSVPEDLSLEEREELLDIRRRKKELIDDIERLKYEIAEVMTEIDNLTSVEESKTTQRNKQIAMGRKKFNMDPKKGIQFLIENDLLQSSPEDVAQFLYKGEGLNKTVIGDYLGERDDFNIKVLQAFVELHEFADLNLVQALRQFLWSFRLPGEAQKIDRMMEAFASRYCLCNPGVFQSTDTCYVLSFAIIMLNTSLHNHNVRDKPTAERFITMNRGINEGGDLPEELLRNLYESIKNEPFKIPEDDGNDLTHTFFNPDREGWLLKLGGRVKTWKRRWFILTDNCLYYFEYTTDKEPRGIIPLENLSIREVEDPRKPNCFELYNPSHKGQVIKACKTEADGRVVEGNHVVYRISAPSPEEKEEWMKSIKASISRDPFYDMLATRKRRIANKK

[6] = molecular target: T4, proteins encoded by both brain and adipocyte cDNA clones (GRP) (Mus musculus, UniProt O08967); test: Binding of 32P-labeled phosphoinositides to protein of isolated cDNA clones on nitrocellulose filters (library screen); conditions: library screening conditions
T4 construct: lack four residues
T4 sequence (O08967 5-399): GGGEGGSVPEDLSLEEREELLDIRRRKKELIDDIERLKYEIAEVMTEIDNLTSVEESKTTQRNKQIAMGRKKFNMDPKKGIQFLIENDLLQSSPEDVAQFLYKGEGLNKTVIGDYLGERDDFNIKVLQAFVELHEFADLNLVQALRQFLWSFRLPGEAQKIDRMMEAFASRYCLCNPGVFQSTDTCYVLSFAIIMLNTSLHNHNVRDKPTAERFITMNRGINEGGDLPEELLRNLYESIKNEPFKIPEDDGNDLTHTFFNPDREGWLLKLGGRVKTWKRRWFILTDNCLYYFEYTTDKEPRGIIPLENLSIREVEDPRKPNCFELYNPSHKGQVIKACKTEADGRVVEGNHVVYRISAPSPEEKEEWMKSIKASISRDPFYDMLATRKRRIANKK

[7] = molecular target: T3, GRP; test: Effect of phosphoinositides on GRP-catalyzed ARF1 guanine nucleotide exchange; type: biochemical; conditions: 25 μM lipid, 0.15 μM GRP
[8] = molecular target: T1, PH domain of GRP; test: Binding specificity of the GRP PH domain for 32P-labeled phosphoinositides (GST-PH on nitrocellulose); design: species or system murine; conditions: GST-PH, 25,000 cpm lipid; relative to GST
Procedure: The 3'-phosphatidylinositol probes labeled at the 3' position were generated using GST-p110 PI3-kinase purified from recombinant bacculovirus infected Sf 9 cells, using either purified phosphatidylinositol phosphates or crude brain lipid. Briefly, 20 mg phospholipid in chloroform was dried under N2 and resuspended in […] of buffer containing Tris-HCl pH 7.4, EDTA 1 mM and incubated in […] phopsphorylation media containing 20 mM Tris-HCl pH 7.4, 100 mM NaCl, 10 mM MgCl2, 0.5 mM EGTA. 0.2 mM adenosine, GST-p110 and 5-10 mCi [g-^32 P]ATP (5 Ci/umol). The reaction was carried out for 2 h at room temperature, quenched by addition of 0.2 ml of 1M HCl, followed by 0.5 ml of chloroform:methanol (1:1). The organic phase containing phospholipids was washed 4 times with 0.4 ml of methanol:HCl (1: 1) and stored at -70° C. until use. Just before use, the lipid was dried under a stream of nitrogen with phosphatidyl serine corresponding to a final concentration of 20 mg/ml. The identities of the PI3-P, PI3,4-P2 and PI3,4,5-P3 were confirmed by TLC and HPLC analysis.
To generate the GST fusion proteins, PCR reactions using the primers: […] (SEQ ID NO:9) and […] (SEQ ID NO:10) for the GST-N construct, […] (SEQ ID NO:11) and […] (SEQ ID NO:12) for the GST-Sec7 construct, […] (SEQ ID NO:13) and […] (SEQ ID NO:14) for the GSTPH construct, and […] […] The filters were washed four times with 1 mL assay buffer and counted in a scintillation counter.
In order to determine whether PI(3,4,5)P3 binding could be localized to specific sequences within the GRP structure, GST fusion proteins containing either residues 239 to 399 (PH domain), residues 52 to 260 (Sec7 domain), or residues 5 to 71, full length GRP residues 5-399 were expressed in bacteria and purified on glutathione-conjugated beads. […] 150 pmol of the proteins were spotted on nitrocellulose filters, incubated with [^32 P]PI(3,4,5)P3 and the amount of bound lipid was determined as described. […] Nitrocellulose filters with GST-PH were incubated with 25,000 cpm of each of the phospholipids and the amount of bound lipid determined as described above. […]

[9] = molecular target: T1, PH domain of GRP; test: Competition for [3H]dioctanoyl PtdIns(3,4,5)P3 binding to the PH domain of GRP; design: GST fused to the PH region of GRP (amino acids 239-399); made in house; host or cells: bacteria
Procedure: Binding assays were performed as described in (Rameh, L. E. et al., J. Biol. Chem., In Press). Briefly, GST fused to the PH region of GRP (amino acids 239-399) was bound to glutathione immobilized on agarose beads (Sigma). Synthetic [^3 H]-labeled diotanoyl PtdIns(3,4,5)P3 was added, and after one hour the beads were separated from the supernatant by centrifugation. The amount of [^3 H]-PtdIns(3,4,5)P3 bound to the PH domain was calculated by subtracting the amount of free [^3 H] present in supernatants from GST-GRP from the amount of free [^3 H] in supernatants from control GST. The data was fitted to the equation [bound]=Bmax×[free]/(KD + [free]) by least squares curve fit. For the competition assays the beads containing the GST-fusion proteins were incubated with 2.5 μM[^3 H]-labeled dioctanoyl PtdIns(3,4,5)P3 bound was calculated based on the amount of [^3 H] bound to the beads in the absence of competitor. The total [^3 H] bound to the GST control was less then 0.5% of the total [^3 H] bound to GRP PH domain. The data was fitted to the equation % bound=100-n×L/Klapp +L) where n is the % specific binding, L is the concentration of unlabeled lipid added and Klapp is the apparent competitive dissociation constant. The rations of the apparent dissociation constants accurately reflect the ratios of the true dissociation constants under the present experimental conditions (Rameh, L. E. et al., J. Biol. Chem., In Press).
The data depicted in FIG. 8 indicate that receptor signaling through PI3-kinases, which generates PtdIns(3,4,5)P3, may specifically regulate ARF proteins through GRP. In order to further test this, the relative binding affinities of PtdIns(3,4,5)P3 versus PtdIns (4,5)P2, which is constitutively present in cell membranes, for the PH domain of GRP were determined. A GST fusion protein of the PH domain of GRP was incubated with various concentrations of synthetic [^3 H]dioctanoyl PtdIns(3,4,5)P3 and binding was determined (FIG. 9A). These experiments show high affinity binding of this polyphosphoinositide,with a calculated Kd=0.5 μM.

affinity, fold higher compared to PtdIns(4,5)P2 ([9]; identical fatty acyl side chains (dioctanoyl)): 50-100 fold
Molecule: CCCCCCCC(=O)OC[C@H](COP(=O)(O)O[C@H]1[C@H](O)[C@@H](OP(=O)(O)O)[C@H](OP(=O)(O)O)[C@@H](OP(=O)(O)O)[C@H]1O)OC(=O)CCCCCCC [dioctanoyl PtdIns(3,4,5)P3]

apparent affinity lower than that for dioctanoyl PtdIns(3,4,5)P3 ([9]; dioctanoyl): about two orders of magnitude lower
Molecule: CCCCCCCC(=O)OC[C@H](COP(=O)(O)O[C@@H]1[C@H](O)[C@H](O)[C@@H](OP(=O)(O)O)[C@H](OP(=O)(O)O)[C@H]1O)OC(=O)CCCCCCC [dioctanoyl PtdIns(4,5)P2]

Second part, the molecule before the results:

Molecule: COC[C@H]1OC(=O)c2coc3c2[C@@]1(C)C1=C(C3=O)[C@@H]2CCC(=O)[C@@]2(C)C[C@H]1OC(C)=O [wortmannin]
receptor-regulated cell adhesion [1]: inhibits receptor-regulated cell adhesion

Molecule: CCCCCCCC(=O)OCC(COP(=O)(O)O[C@H]1[C@H](O)[C@@H](OP(=O)(O)O)[C@H](OP(=O)(O)O)[C@@H](OP(=O)(O)O)[C@H]1O)OC(=O)CCCCCCC (stereo partly drawn) [[^3 H]dioctanoyl PtdIns(3,4,5)P3]
Kd [2]: 510 nM
Kd ([2]; synthetic [^3 H]dioctanoyl PtdIns(3,4,5)P3): 500 nM

Molecule: O=P(O)(O)O[C@@H]1[C@H](O)[C@H](O)[C@@H](OP(=O)(O)O)[C@H](OP(=O)(O)O)[C@H]1O [Ins(1,4,5)P3, D-myo-inositol 1,4,5 trisphosphate]
interaction with isolated PH domain of PLCγ1 [3]: high affinity
inhibition of [^32 P]PI(3,4,5)P3 binding to GST-PH(GRP) ([4]; 100 μM competitor): little or no effect
binding of inositol phosphate to GRP polypeptides ([4]; statement in the description): not
inhibition of PtdIns(3,4,5)P3-stimulated GRP-mediated ARF1 guanine nucleotide exchange [5]: failed to inhibit

Molecule: PtdIns(3,4)P2
binding of labeled phosphoinositide to the cDNA clone protein [6]: not
stimulation of ARF1 exchange activity in the presence of GRP ([7]; 0.05% cholate and 0.05% CHAPS (low negative charge)): little or no effect
stimulation of ARF1 exchange activity in the presence of GRP ([7]; 0.1% cholate (high negative charge)): stimulated
binding of labeled phosphoinositide to the GRP PH domain [8]: failed to bind

Molecule: PI(3)P
binding of labeled phosphoinositide to the cDNA clone protein [6]: not
binding of labeled phosphoinositide to the GRP PH domain [8]: failed to bind
